The test system of assay [1] is CD4^+ T cells. As to the kind of experiment: I-A^b:peptide tetramer binding by flow cytometry after peptide immunization. It counts as cell-based, mouse. The method, then: (§1) FIGS. 4A-4B. Negative selection of AQP4 p133-149-reactive T cells is bypassed partially in mice deficient in thymic AQP4 expression. (FIG. 4A) AQP4^−/− WT, Foxn1cre-AQP4^fl/fl, Aire^−/−, or Foxn1cre-Fezf2^fl/fl mice were immunized s.c. with peptides indicated. Peptide-specific proliferation of draining lymph node cells was measured by 3H-thymidine incorporation (mean±SEM, representative of five experiments). Comparisons within the five experiments for p133-149 at […]: WT vs. AQP4^−/− (p=0.008), WT vs. Foxn1cre-AQP4^fl/fl (p=0.008). (FIG. 4B) Ten days after peptide immunization, CD4^+ T cells from draining lymph nodes were analyzed for I-A^b: peptide tetramer binding by flow cytometry. Each data point represents the frequency (mean±SEM) of CD4^+ T cells bound to cognate antigen-tetramer in a single mouse. […] For p133-149: WT vs. Aire^−/− (p=0.9), WT vs. Foxn1cre-Fezf2^fl/fl (p=0.3). For p202-218: WT vs. Foxn1cre-AQP4^fl/fl (p=0.3), WT vs. Aire^−/− (p=0.06).
Flow cytometry. For analysis of tetramer binding, AQP4 p133-149, p202-218, IRBP p277-289 and hCLIP p87-101 IA^b tetramers conjugated to PE or APC were provided by the National Institute of Allergy and Infectious Diseases Tetramer Core Facility at Emory University. Lymphocytes were coincubated with 1 mg/ml tetramer conjugated to PE or APC for 2 hours at room temperature, washed and enriched using anti-PE magnetic microbeads (Miltenyi) over a magnetic column. Binding to hCLIP tetramer was used as a negative control. Dead cells were excluded using Live/Dead fixable Aqua Dead Cell Stain Kit (Invitrogen), lineage negative cells were excluded using antibodies to CD11b (M1/70), B220 (RA3-6B2) and CD8 (53-6.7) and positive cells were selected using antibodies to CD3 (145-2C11) and CD4 (RM4.5). 123count eBeads (Invitrogen) were used with unenriched and enriched samples for quantification of the frequency of tet^+CD4^+ T cells (total number of tet^+CD4+ T cells divided by total CD4^+ T cells per mouse). For figures showing tetramer staining, flow cytometry of the unenriched cells are shown. For analysis of GFP^+ T cells, mice were perfused with PBS, and the CNS was dissected, minced, digested with collagenase and DNase I (Roche), and isolated over a Ficoll gradient as described previously (39). Live CD4^+ cells were analyzed with a viability stain (Near-IR), and antibodies to CD11b, B220, CD8 and CD4. Apoptosis was analyzed separately using the same antibody staining, followed by Annexin V and 7-AAD staining in Annexin V binding buffer (BioLegend) per manufacturer's instructions. Cells were quantified using 123count eBeads.

The test system of assay [2] is draining lymph node cells. Put plainly: Proliferation assay, ^3H-thymidine incorporation after s.c. peptide immunization. It counts as cell-based, mouse. The method, then:
FIGS. 2A-2F. Pathogenic AQP4 determinants bind I-A^b with high affinity and elicit proliferation of AQP4: I-A^b-specific TCR-bearing T cells in AQP4-deficient mice. (FIG. 2A) WT or AQP4^−/− mice were immunized s.c. with peptides indicated. Peptide-specific proliferation of draining lymph node cells was measured by 3H-thymidine incorporation (mean±SEM, representative of five experiments). (FIG. 2B) Lymph node cells from AQP4 immunized WT or AQP4^−/− mice were cultured for 3 days with cognate antigen under Th17 polarizing conditions. AQP4 p133-149- and p202-218-specific Th17 cells from AQP4/donors induce paralysis in WT recipient mice. (FIG. 2C) IEDB, an in silico method for predicting determinants within proteins that bind MHC alleles, was used to identify AQP4 amino acid sequences anticipated to bind I-A^b for recognition by AQP4-specific/I-A^b-restricted CD4^+ T cells. 1/IC50 is plotted against the first amino acid for each overlapping AQP4 15 mer. Peaks correspond to increased predicted binding affinity. (FIG. 2D) Purified I-A^b molecules were tested biochemically for peptide binding affinity using a competitive binding assay between a radiolabeled high-affinity competitor peptide and unlabeled peptides (22). Lower IC50 values indicate higher binding affinity. Boxed amino acids designate the core binding regions. (FIGS. 2E-2F) Lymph node T cells isolated from WT or AQP4−/− mice immunized with AQP4 p133-149 or p202-218 were stained with I-A^b:p133-149 and […] tetramers, bead-enriched and analyzed by flow cytometry. […] Each data point represents one mouse. ****p<0.0001 (Mann Whitney U test).
as §1
Proliferation assays. Mice were immunized subcutaneously (s.c.) with 100 μg of AQP4, MOG or IRBP peptide in CFA containing 400 μg M. tuberculosis H37Ra (Difco Laboratories). Lymph nodes were harvested on day 10-12 and cultured at 2×10^5/well with various concentrations of peptide in triplicate wells for 72 hours. […] of ^3H-thymidine was added 18 hours prior to cell harvest, and data are presented as counts per minute (CPM). Stimulation Index (SI) was calculated by dividing CPM in wells with Ag by CPM in wells with no antigen controls of each assay test group.
(In general: Uptake of a labelled nucleoside into DNA is a usual measure of proliferation.)

Where [3] appears, read: AQP4^−/− mice compared with the other strains, cognate I-A^b:peptide tetramer.
Setting [4] is: Foxn1cre-AQP4^fl/fl (thymic AQP4-deficient) mice compared with WT mice.
Where [5] appears, read: AQP4^−/− mice immunized with the peptide.
[6] abbreviates: Aire^−/− mice immunized with the peptide.
Setting [7] is: Foxn1cre-AQP4^fl/fl mice immunized with the peptide.
[8] abbreviates: WT mice immunized with the peptide.

“Also recorded” adds a separate entry of the source.

As to LYLVTPPSVVGGLGVT [AQP4 p133-149], the “frequency of CD4^+ tet^+ T cells” value in assay [1] (setting [3]) is “significantly elevated in AQP4^−/− mice”; in assay [1] (setting [4]) it was “significantly elevated in comparison to AQP4 p133-149-specific T cells in WT mice”; in assay [1] (Foxn1cre-AQP4^fl/fl mice compared with AQP4^−/− mice), “significantly lower than in AQP4^−/− mice”. Further, the “peptide-specific proliferation of draining lymph node cells” value in assay [2] (setting [5]) is “robust proliferative T cell responses”; in assay [2] (AQP4^−/− mice immunized with the peptide, listed as p133-149) it was “robust proliferative responses”; in assay [2] (setting [6]) it was “little or no proliferation”; in assay [2] (setting [7]) it was “induced proliferation in Foxn1cre-AQP4^fl/fl mice, but not to the same level as in AQP4^−/− mice”; in assay [2] (Foxn1cre-Fezf2^fl/fl mice immunized with the peptide), “little or no proliferation”; in assay [2] (setting [8]) it was “little or no proliferation”.

As to LFAINYTGASMNPARSF [AQP4 p202-218], the results for the “frequency of CD4^+ tet^+ T cells” value in assay [1] (setting [3]) and in assay [1] (setting [4]) were “elevated in AQP4^−/− mice in comparison to other strains” and “did not permit significant restoration”, respectively. For the same sequence, the “peptide-specific proliferation of draining lymph node cells” value was “robust proliferative responses; also recorded: strong proliferation” in assay [2] (setting [5]), “no significant responses” in assay [2] (setting [6]), “only marginal responses” in assay [2] (setting [7]) and “no significant responses” in assay [2] (setting [8]).

For the origin of these results see US20250052751A1, “COMPOSITIONS AND METHODS FOR DIAGNOSING AUTOIMMUNE AQUAPORINOPATHY” (The Regents of the University of California, priority 2023, published 2025).
